Laboratory results: patent US7714014B2, “Targeting GLI proteins in human cancer by small molecules” (The Regents of the University of California, priority 2005, dated 2010)

Key:
[1] = test system: Primary cultured mesothelioma; test: Apoptosis analysis (Annexin V FITC, flow cytometry); type: cell-based, human; conditions: 3 days
Experimental: Fresh cancer tissue and adjacent normal tissue from patients undergoing curative primary resection of their tumors were collected at the time of surgery (IRB approval H8714-15319-040), and immediately snap-frozen in liquid nitrogen. These tissue samples were kept at −170° C. in a liquid nitrogen freezer until further use. Primary tissue cultures were prepared as follows: Fresh cancer tissue was obtained with consent from patients undergoing resection, cut into small pieces (1-2 mm in diameter), and then digested with Collagenase A (Roche Applied Science, Indianapolis, Ind.) at room temperature for 2 hours according to manufacture's protocol. Single cells from the digestion were spun down and the cell pellets were washed twice using RPMI 1640 supplemented with 10% fetal bovine serum, penicillin (100 IU/ml) and streptomycin (100 μg/ml). Then, the cells were resuspended in the same medium and cultured in 6-well plates at 37° C. in a humid incubator with 5% CO2 until they were ready for further treatments.
(§1) Apoptosis was analyzed by using an Annexin V FITC Apoptosis Detection Kit (Biosource, Camarillo, Calif.), according to the manufacturer's protocol. After treatment with different small molecule compounds at various concentrations for about 3 days, cells were harvested by trypsinization, stained and immediately analyzed by flow cytometry (FACScan; Decton Dickinson, Franklin Lake, N.J.). Early apoptotic cells with exposed phosphatidylserine but intact cell membranes will bind to Annexin V-FITC, but not propidium iodide (PI). Cells in necrotic or late apoptotic stages will be labeled with both Annexin V-FITC and PI. “% apoptotic cells” or “% apoptosis” refers to the combined early and late apoptotic cells.
Next, flow cytometry was used to examine apoptosis after the treatment of small molecule compound FN1-5 at different doses (10 μM, 30 μM and 50 μM) for 3 days in primary cultured human mesothelioma cells freshly made from tissue samples.

[2] = test system: hedgehog pathway in melanoma cell line LOX, colon cancer cell line SW480 and primary cultured human mesothelioma cells; test: Semi-quantitative RT-PCR of Hedgehog pathway genes; type: cell-based; conditions: data not shown
Experimental: Total RNA from cell lines or tissue samples was isolated using Qiagen RNeasy Mini Kit (Valencia, Calif.). RT-PCR was performed in GeneAmp PCR system 2700 (Applied Biosystems, Foster City, Calif.) using One-step RT-PCR Kit from Invitrogen Life Technologies (Carlsbad, Calif.). Primers for RT-PCR were obtained from Operon Technologies Inc. (Alameda, Calif.). Primer sequences for amplifying different genes in Hedgehog and Wnt signaling pathways are listed in the table below (Table 1; F, forward primer; R, reverse primer). The expected size of the PCR product is indicated for each primer pair. GAPDH was used as internal control.

[3] = test system: Tcf-mediated gene transcription (canonical Wnt signaling) in colon cancer cell line HCT116; test: TOPFLASH (TOP/FOP) assay; type: cell-based, human; conditions: HCT116, 30 μM; for TOP/FOP activity: 18-24 hours
Experimental: Cells were plated in 12-well plates. The TOPFLASH or FOPFLASH reporter plasmid (Upstate; Charlottesville, Va.) was transfected transiently into cells as described above. Tcf-mediated gene transcription was determined by the ratio of pTOPFLASH:pFOPFLASH luciferase activity, each was normalized to luciferase activities of the pRL-TK reporter (co-transfected internal control). All experiments were performed in triplicate, and repeated three times.
As another specificity test of the small molecule compounds of the invention, it was tested whether small molecule compounds FN1-5, FN1-7, FN1-8, FN1-9U, FN1-9S, FN2-1, and FN3-5 could regulate the transcription activity of the canonical Wnt signaling by using TOP/FOP assay.

Normal muscle cells = test: Apoptosis analysis (Annexin V FITC, flow cytometry); type: cell-based, human; conditions: 3 days
Experimental: as §1
In addition, apoptosis induction after the treatment of different doses of FN1-5 or FN1-8 in normal human muscle cells was examined by flow cytometry. Normal muscle cells were plated in 6-well plates and incubated with 1, 10, 30, and 50 μM of each compound for 3 days, as above.

[4] = test system: human prostate cancer cell line LnCAP; test: Cell survival assay (crystal violet); type: cell-based; conditions: FN1-8 at 50 μM, FN1-5 30 and 50 μM
Experimental: (§2) Typically, the small molecule compounds of the present invention were dissolved in DMSO at a concentration of 30 mM. The small molecule compounds were then tested under cell culture conditions at different concentrations ranging from 0, 10, 30, 50, to 100 uM. To determine cell survival after treatment, the cells were incubated with the small molecule compounds in 6-well plates for about 3 days. After removal of the cell culture medium, 1-ml of 0.5% crystal violet solution (prepared in 20% ethanol and 20% methanol) was added to stain the cells for 5 min. Then the crystal violet solution was rinsed clean with tap water. Cell survival was estimated based on the density of crystal stained plates.
The cell-based cytotoxicity assay described herein was used to determine the effect of small molecule compounds FN1-5 and FN1-8 on the human prostate cancer cell line LnCAP. Viability of LnCAP cells was analyzed after treatment with 30 and 50 μM FN1-5 and after treatment with 10, 30, and 50 μM FN1-8.

[5] = test system: mesothelioma cell lines H290 and 211H; test: Cell survival assay (crystal violet); type: cell-based, human; conditions: 30 μM, 3 days
Experimental: as §2
Cell killing was also tested using mesothelioma cell lines H290, 211H, MS1 and REN and different doses of the small molecule compounds FN1-5 and FN1-8. Cells were plated in 6-well plates and incubated with 1, 10, and 30 μM of each compound for 3 days, as described herein. […] (data not shown).

[6] = test system: human pancreatic cancer cell lines L3.6sl, Panc4.21, BxPC3, and CFPAC-1; test: Cell survival assay (crystal violet); type: cell-based; conditions: for cell killing: 50 μM, all pancreatic lines analyzed
Experimental: as §2
The cell-based cytotoxicity assay described herein was used to determine the effect of small molecule compounds FN1-5 and FN1-8 on the human pancreatic cancer cell lines L3.6sl, Panc4.21, BxPC3, and CFPAC-1. Viability of these cells was analyzed after treatment with 10, 30 and 50 μM FN1-5 or FN1-8. […] However, cell killing mediated by FN1-5 in Panc4.21 was less when compared to its effect on the three other pancreatic cancer cell lines.

[7] = test system: human sarcoma cell lines MG63 and MNNG; test: Cell survival assay (crystal violet); type: cell-based; conditions: FN1-8 at 50 μM; 10, 30 and 50 μM tested
Experimental: as §2
The cell-based cytotoxicity assay described herein was used to determine the effect of small molecule compounds FN1-5 and FN1-8 in the human sarcoma cell lines MG63 and MNNG. Viability of these cells was analyzed after treatment with 10, 30 and 50 μM FN1-5 or FN1-8.

normal human renal cells = test: Cell survival assay (crystal violet); type: cell-based; conditions: FN1-5 30 and 50 μM; FN1-8 10, 30, and 50 μM; 3 days
Experimental: as §2
The cell killing effect of small molecule compounds FN1-5, and FN1-8 at different doses was examined in normal human renal cells. Normal renal cells were plated in 6-well plates and incubated with 30 and 50 μM of compound FN1-5 and 10, 30, and 50 μM FN1-8 for 3 days, in the same manner as described herein for similar other experiments.

SMILES | % of apoptotic cells ([1]; 10 μM) | % of apoptotic cells ([1]; 30 μM) | % of apoptotic cells ([1]; 50 μM) | modulation of hedgehog pathway (RT-PCR) [2] | reduction of TOP/FOP activity [3] | TOP/FOP activity [3] | % of apoptotic cells (Normal muscle cells; 10 μM) | % of apoptotic cells (Normal muscle cells; 30 μM) | % of apoptotic cells (Normal muscle cells; 50 μM) | cell killing [4] | cell killing [5] | cell killing [6] | cell killing [7] | cell killing effect in normal cells (normal human renal cells) | cell killing in Panc4.21 compared to the three other pancreatic cancer cell lines ([6]; Panc4.21)
O=C(NCCc1ccc(O)cc1)C1C(c2ccccc2)=NN(c2ccccc2)C1c1ccccc1 (stereo not shown) [FN1-8, N-(2-(4-Hydroxyphenyl)ethyl)-1,3,5-triphenyl-4,5-dihydro-pyrazole-4-carboxyamide] | 13.2% | 14.7% | 33.6% | modulate the hedgehog pathway | about 36% | down-regulate TOP/FOP activity dramatically | 7.8% | 9.3% | 9.7% | dramatic cell killing | Dramatic cell killing | dramatic cell killing | dramatic cell killing | No noticeable cell killing effect | 
O=C(NCCCCCO)C1C(c2ccccc2)=NN(c2ccccc2)C1c1ccccc1 (stereo not shown) [FN1-5, N-(5-Hydroxypentyl)-1,3,5-triphenyl-4,5-dihydro-pyrazole-4-carboxyamide] | 12.3% | 15.8% | 18.3% | modulate the hedgehog pathway |  | down-regulate TOP/FOP activity dramatically | 7.5% | 7.6% | 8.8% | much lesser cell killing effect | Dramatic cell killing | dramatic cell killing | No significant cell killing | No noticeable cell killing effect | less
